In assay [1] the target is T1, c-Src kinase domain (Homo sapiens, UniProt P12931). The assay is described as follows: RP-HPLC assay to measure peptide phosphorylation kinetics. The format is biochemical. The note with it: purified peptide substrate.
Assay [2] has as its target T1, c-Src kinase domain. The assay is described as follows: pTyr-Var library bacterial peptide display kinase screen (enrichment scores). The format is biochemical.
Assay [3] has as its system Fyn kinase domain. The description is as above. The assay is classed as biochemical, human.
The next assay has as its system Hck kinase domain. The assay is described as above. The format is biochemical, human.
The next assay addresses T2, c-Abl kinase domain (Mus musculus, UniProt P00520).
T2 sequence (P00520 242-493 limits assumed): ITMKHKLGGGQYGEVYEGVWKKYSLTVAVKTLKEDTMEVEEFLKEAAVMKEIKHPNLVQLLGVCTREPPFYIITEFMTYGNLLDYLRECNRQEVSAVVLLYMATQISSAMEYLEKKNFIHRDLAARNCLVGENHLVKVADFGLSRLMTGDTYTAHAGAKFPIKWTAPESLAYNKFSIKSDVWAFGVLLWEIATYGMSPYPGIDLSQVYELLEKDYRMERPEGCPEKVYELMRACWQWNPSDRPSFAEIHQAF
The assay is described as above. The format is biochemical.

For another assay, the system named is Jak2. The description is as above. The format is biochemical, human.
The test system of the next assay is AncSZ kinase domain. Described as above. The assay is classed as biochemical.
The next assay deals with Fer kinase domain. The description is as above. The assay is classed as biochemical, mouse.
In the next assay the test system is Fes. The assay is described as above. The assay is classed as biochemical.
The test system of assay [4] is FGFR1 kinase domain. The assay is described as above. The format is biochemical, human.
For another assay, the system named is FGFR3 kinase domain. The assay is described as above. The format is biochemical, human.
In a further assay the test system is EPHB1 kinase domain. Described as above. The assay is classed as biochemical, human.
The subject of the next assay is EPHB2 kinase domain. The assay is described as above. The format is biochemical, human.
The test system of a further assay is MERTK kinase domain. The assay is described as above. The format is biochemical, human.
The target of another assay is c-Src SH2 domain (Homo sapiens, UniProt P12931). The assay is described as follows: pTyr-Var library SH2 domain screen with SH2-dynabeads (enrichment scores). The note with it: sheet c-Src.
For the next assay, the system named is SHP2 C-SH2 domain. Described as above.
The next assay has as its system Grb2 SH2 domain. The description is as above.
For assay [5], the system named is FGFR1 kinase domain. The assay is described as follows: LC-MS assay of intact SHP2 protein phosphorylation. The assay is classed as biochemical, human. To be noted: SHP2 10 μM, kinase 1 μM, 1 hr, 37 °C, 2 to 3 measurements. How it is done: (§1) The same protocol used to express and purify SH2 domains, excluding co-expression of BirA and addition of biotin, was applied to the expression and purification of the SHP2 variants.
(§2) To pre-activate the kinases, 1 μM of each purified kinase domain was preincubated at 37 °C for 30 min in the same buffer conditions used in the kinase domain peptide display screen, with 1 mM ATP. The reaction of the kinase with SHP2 was initiated with the addition of 10 μM SHP2, and the mixture was incubated in 37 °C for 1 hr. To terminate the reaction, the mixture was quenched with 200 mM EDTA. The reaction mixture was diluted 3:2 in water and injected onto a BEH C8 column (Waters) on a UPLC-MS system (Xevo QToF, Waters). Reverse-phase liquid chromatography was carried out at 0.3 mL/min with solvents A (H2O, 0.1% (v/v) formic acid) and B (acetonitrile, 0.1% (v/v) formic acid). Proteins were eluted over a gradient of 5–95% B for 8.5 min. The protein peak on the chromatogram was deconvoluted using the MaxEnt1 algorithm from 32,000–65,000 Da with a resolution of 1 Da/channel over 30 iterations. Peaks were chosen according to the theoretical MW of the protein within a range of 5 Da, and integrated for the signal intensity.

Assay [6] deals with Fyn kinase domain. The assay is described as follows: LC-MS assay of intact SHP2 protein phosphorylation. The format is biochemical, human. The note with it: SHP2 10 μM, kinase 1 μM, 1 hr, 37 °C, 2 to 3 measurements. On the procedure: as §1, §2
Setting [7] is: mean of log2 of enrichment over R1-R4.
The mark [8] stands for this setting: pTyr-Var library, enrichment score, replicate 1.
[9] abbreviates: pTyr-Var library, enrichment score, replicate 3.
Where [10] appears, read: pTyr-Var library, enrichment score, replicate 4.
The mark [11] stands for this setting: variant versus reference peptide.
Where [12] appears, read: variant versus reference peptide, significant hit TRUE/FALSE.
Where [13] appears, read: mean of log2(variant) minus mean of log2(reference).
The mark [14] stands for this setting: mean of log2 enrichment of variant peptide, n = 5.
Where [15] appears, read: mean of log2 enrichment of variant peptide, n = 4.
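For AncSZ hit? in this document: Hit requires p below 0.05 and at least twofold variant vs reference change plus filters.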
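For Fyn hit? in this document: Hit requires p below 0.05 and at least twofold variant vs reference change plus filters.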
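For c-Abl hit? in this document: Hit requires p below 0.05 and at least twofold variant vs reference change plus filters.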
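For c-Src hit? in this document: Hit requires p below 0.05 and at least twofold variant vs reference change plus filters.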
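For screen in this document: log2 fold change in enrichment of variant over reference.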

Consider “Ac-WDLPEYSFKDP-NH2 [ITGA3_Y237_S235P_YF, pTyr-Var library variant phosphosite peptide]”, for which the “Phosphorylation Rate” value at c-Src kinase domain [1] came to 0.153 s⁻¹. For the same molecule, the Screen on c-Src kinase domain [2] (sheet "Src", effect of the variant peptide relative to its reference peptide in the pTyr-Var library screen) is on record as -1.08.

GMAHNYRNRSQ [AASS_Y188_S191R]: on c-Src kinase domain [2] (setting [7]), the “c-Src mean of log2(enrichment)” value was -1.078. The “c-Src enrich. R1” value at c-Src kinase domain [2] (setting [8]) was determined as 0.5961. In addition, on c-Src kinase domain [2] (setting [9]), the “c-Src enrich. R3” value was determined as 0.5045. The “c-Src enrich. R4” value on c-Src kinase domain [2] (setting [10]) was determined as 0.4581. Moreover, the “c-Src difference (mean log2 variant - mean log2 reference)” value on c-Src kinase domain [2] (setting [11]) was determined as 0.3253. For the same molecule, the “c-Src hit?” value at c-Src kinase domain [2] (setting [12]) was “FALSE”. The “Fyn mean of log2(enrichment)” value in the assay with Fyn kinase domain [3] (setting [7]) was -1.18. For the same molecule, in the assay with Fyn kinase domain [3] (setting [8]), the “Fyn enrich. R1” value amounted to 0.3131. Besides, the “Fyn enrich. R3” value in the assay on Fyn kinase domain [3] (setting [9]) came to 0.443. Moreover, in the assay on Fyn kinase domain [3] (setting [10]), the “Fyn enrich. R4” value is listed as 0.884. Besides, the “Fyn difference (mean log2 variant - mean log2 reference)” value in the assay with Fyn kinase domain [3] (setting [11]) is given as 0.1477. In the assay on Fyn kinase domain [3] (setting [12]), the “Fyn hit?” value is recorded as “FALSE”. For the same molecule, the “Hck mean of log2(enrichment)” value in the assay with Hck kinase domain (mean of log2(variant) / mean of log2(reference), R1-R4) worked out at 0.5234. Further, the “Hck enrich. R1” value in the assay on Hck kinase domain (setting [8]) amounted to 0.3364. Moreover, the “Hck enrich. R3” value in the assay with Hck kinase domain (setting [9]) was 0.4885. In the assay on Hck kinase domain (setting [10]), the “Hck enrich. R4” value worked out at 0.9262. For the same molecule, in the assay on Hck kinase domain (setting [11]), the “Hck difference (variant - reference)” value worked out at 0.1099. Moreover, in the assay on Hck kinase domain (setting [12]), the “Hck hit?” value is on record as “FALSE”. Besides, on c-Abl kinase domain (setting [7]), the “c-Abl mean of log2(enrichment)” value is recorded as -0.8983. The “c-Abl enrich. R1” value at c-Abl kinase domain (setting [8]) stood at 0.3489. In addition, the “c-Abl enrich. R3” value on c-Abl kinase domain (setting [9]) came to 0.6113. In addition, the “c-Abl enrich. R4” value at c-Abl kinase domain (setting [10]) stood at 0.4438. On c-Abl kinase domain (setting [12]), the “c-Abl hit?” value was “FALSE”. Also, the “Jak2 mean of log2(enrichment)” value in the assay with Jak2 (mean of log2 of enrichment over R1-R3) is on record as -1.127. In the assay with Jak2 (setting [9]), the “Jak2 enrich. R3” value turned out to be 0.7448. Moreover, the “Jak2 difference (mean log2 variant - mean log2 reference)” value in the assay with Jak2 (setting [11]) was found to be 0.1075. The “Jak2 hit?” value in the assay with Jak2 (setting [12]) is on record as “FALSE”. Further, the “AncSZ mean of log2(enrichment)” value in the assay with AncSZ kinase domain (mean of log2 of enrichment over R1-R5) is -0.8229. In addition, in the assay with AncSZ kinase domain (setting [8]), the “AncSZ enrich. R1” value is reported as 0.4421. For the same molecule, the “AncSZ enrich. R3” value in the assay with AncSZ kinase domain (setting [9]) turned out to be 0.7733. Besides, in the assay with AncSZ kinase domain (setting [10]), the “AncSZ enrich. R4” value came out at 0.7058. Besides, in the assay on AncSZ kinase domain (pTyr-Var library, enrichment score, replicate 5), the “AncSZ enrich. R5” value is given as 0.7616. Moreover, the “AncSZ difference (mean log2 variant - mean log2 reference)” value in the assay on AncSZ kinase domain (setting [11]) is reported as -0.03377. Further, the “AncSZ hit?” value with AncSZ kinase domain (setting [12]) is on record as “FALSE”. Further, in the assay on Fer kinase domain (setting [7]), the “Fer mean of log2(enrichment)” value is listed as -1.585. Besides, the “Fer enrich. R1” value in the assay on Fer kinase domain (setting [8]) was determined as 0.273. Moreover, the “Fer enrich. R3” value with Fer kinase domain (setting [9]) is reported as 0.5188. In addition, the “Fer enrich. R4” value in the assay with Fer kinase domain (setting [10]) worked out at 0.4406. The “Fer difference (mean log2 variant - mean log2 reference)” value with Fer kinase domain (setting [11]) is -0.1949. Further, the “Fer hit?” value in the assay with Fer kinase domain (setting [12]) was “FALSE”. In addition, in the assay with Fes (mean of log2 of enrichment over R1-R6), the “Fes mean of log2(enrichment)” value is listed as -0.768. In the assay with Fes (setting [11]), the “Fes difference (mean log2 variant - mean log2 reference)” value is recorded as 0.4232. The difference in the assay on FGFR1 kinase domain [4] (setting [13]) is given as -0.1712; with FGFR3 kinase domain (setting [13]) it was -0.0947; in the assay with EPHB1 kinase domain (setting [13]), 0.7368; in the assay with EPHB2 kinase domain (setting [13]) it was -0.2462; in the assay with MERTK kinase domain (setting [13]) it was 0.1021; on c-Src SH2 domain (setting [13]), -0.07136. Further, the difference is reported as -0.6126 in the assay with SHP2 C-SH2 domain (SHP2-C SH2, mean of log2(variant) minus mean of log2(reference)) and -0.06902 with Grb2 SH2 domain (Grb2 SH2, mean of log2(variant) minus mean of log2(reference)). Also, the “mean of log2(variant)” value is on record as -1.608 with FGFR1 kinase domain [4] (setting [14]); -1.326 in the assay with FGFR3 kinase domain (setting [14]); -1.347 in the assay with EPHB1 kinase domain (setting [15]); -1.376 with EPHB2 kinase domain (setting [15]); -1.214 in the assay on MERTK kinase domain (setting [15]); -1.19 at c-Src SH2 domain (mean of log2 enrichment of variant peptide, R1-R3). For the same molecule, the “mean of log2(variant)” value in the assay on SHP2 C-SH2 domain (SHP2-C SH2, mean of log2 enrichment of variant, R1-R3) was -1.425; in the assay with Grb2 SH2 domain (Grb2 SH2, mean of log2 enrichment of variant, R1-R3), -0.6418. In addition, the var. mean in the assay with FGFR1 kinase domain [4] (pTyr-Var library, variant peptide enrichment, mean of n = 5) worked out at 0.3444. Further, the “hit?” value is on record as “FALSE” with SHP2 C-SH2 domain (SHP2-C SH2, variant versus reference significant hit call) and “FALSE” with Grb2 SH2 domain (Grb2 SH2, variant versus reference significant hit call).

B1: SHP2 D61N: human full-length SHP2 (residues 1–526; C459E, D61N) (protein, UniProt Q06124 2-593, looked up, variant C459E D61N)
Tyrosine-protein phosphatase …: TSRRWFHPNITGVEAENLLLTRGVDGSFLARPSKSNPGDFTLSVRRNGAVTHIKIQNTGNYYDLYGGEKFATLAELVQYYMEHHGQLKEKNGDVIELKYPLNCADPTSERWFHGHLSGKEAEKLLTEKGKHGSFLVRESQSHPGDFVLSVRTGDDKGESNDGKSKVTHVMIRCQELKYDVGGGERFDSLTDLVEHYKKNPMVETLGTVLQLKQPLNTTRINAAEIESRVRELSKLAETTDKVKQGFWEEFETLQQQECKLLYSRKEGQRQENKNKNRYKNILPFDHTRVVLHDGDPNEPVSDYINANIIMPEFETKCNNSKPKKSYIATQGCLQNTVNDFWRMVFQENSRVIVMTTKEVERGKSKCVKYWPDEYALKEYGVMRVRNVKESAAHDYTLRELKLSKVGQGNTERTVWQYHFRTWPDHGVPSDPGGVLDFLEEVHHKQESIMDAGPVVVHESAGIGRTGTFIVIDILIDIIREKGVDCDIDVPKTIQMVRSQRSGMVQTEAQYRFIYMAVQHYIETLQRRIEEEQKSKRKGHEYTNIKYSLADQTSGDQSPLPPCTPTPPCAEMREDSARVYENVGLMQQQKSFR
B1: in the assay on FGFR1 kinase domain [5], the “phosphorylation of intact SHP2 by FGFR1” value is listed as “dramatically enhanced phosphorylation”. In addition, the “phosphorylation of intact SHP2 by Fyn” value in the assay on Fyn kinase domain [6] is reported as “dramatically enhanced phosphorylation”.

For the origin of these results see PMC10065799, “High-throughput profiling of sequence recognition by tyrosine kinases and SH2 domains using bacterial peptide display” (eLife, 2023).
